Measurements reported in US9309242B2, “Substituted pyrido[2,3-b]pyrazines as FGFR kinase inhibitors” (priority 2011, dated 2016).
Where two headings read alike, the source gives them in different places.

How the values were obtained:
KDR (h) = KDR (h) (Homo sapiens, UniProt P35968); test: KDR (VEGFR2) (enzymatic assay), TR-FRET; type: biochemical; settings: average values if tested multiple times, read-out: VEGFR 2 (KDR) pIC50 (converted)
Outline: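 Human KDR (150 ng/ml) was reacted with 500 nM Btn-Flt3 and 3 μM ATP in 50 mM HEPES pH 7.5, 6 mM MnCl2, 1 mM DTT, 0.1 mM Na3VO4, 0.01% Triton X-100, 1% DMSO, for 120 min at room temperature. Phosphorylation detected by TR-FRET (Eu-anti-P-Tyr/SA-XL665, 60 min), read in RFU.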

[1] = biological target: T1, Ba/F3-KDR-transfected cells (Homo sapiens, UniProt P35968); test: Ba/F3-KDR (minus IL3) cellular proliferation assay, Alamar Blue; type: cell-based
T1 construct: BAF3-KDR (MIN IL3) pIC50; other: minus IL3
T1 sequence (P35968 whole entry, change not shown): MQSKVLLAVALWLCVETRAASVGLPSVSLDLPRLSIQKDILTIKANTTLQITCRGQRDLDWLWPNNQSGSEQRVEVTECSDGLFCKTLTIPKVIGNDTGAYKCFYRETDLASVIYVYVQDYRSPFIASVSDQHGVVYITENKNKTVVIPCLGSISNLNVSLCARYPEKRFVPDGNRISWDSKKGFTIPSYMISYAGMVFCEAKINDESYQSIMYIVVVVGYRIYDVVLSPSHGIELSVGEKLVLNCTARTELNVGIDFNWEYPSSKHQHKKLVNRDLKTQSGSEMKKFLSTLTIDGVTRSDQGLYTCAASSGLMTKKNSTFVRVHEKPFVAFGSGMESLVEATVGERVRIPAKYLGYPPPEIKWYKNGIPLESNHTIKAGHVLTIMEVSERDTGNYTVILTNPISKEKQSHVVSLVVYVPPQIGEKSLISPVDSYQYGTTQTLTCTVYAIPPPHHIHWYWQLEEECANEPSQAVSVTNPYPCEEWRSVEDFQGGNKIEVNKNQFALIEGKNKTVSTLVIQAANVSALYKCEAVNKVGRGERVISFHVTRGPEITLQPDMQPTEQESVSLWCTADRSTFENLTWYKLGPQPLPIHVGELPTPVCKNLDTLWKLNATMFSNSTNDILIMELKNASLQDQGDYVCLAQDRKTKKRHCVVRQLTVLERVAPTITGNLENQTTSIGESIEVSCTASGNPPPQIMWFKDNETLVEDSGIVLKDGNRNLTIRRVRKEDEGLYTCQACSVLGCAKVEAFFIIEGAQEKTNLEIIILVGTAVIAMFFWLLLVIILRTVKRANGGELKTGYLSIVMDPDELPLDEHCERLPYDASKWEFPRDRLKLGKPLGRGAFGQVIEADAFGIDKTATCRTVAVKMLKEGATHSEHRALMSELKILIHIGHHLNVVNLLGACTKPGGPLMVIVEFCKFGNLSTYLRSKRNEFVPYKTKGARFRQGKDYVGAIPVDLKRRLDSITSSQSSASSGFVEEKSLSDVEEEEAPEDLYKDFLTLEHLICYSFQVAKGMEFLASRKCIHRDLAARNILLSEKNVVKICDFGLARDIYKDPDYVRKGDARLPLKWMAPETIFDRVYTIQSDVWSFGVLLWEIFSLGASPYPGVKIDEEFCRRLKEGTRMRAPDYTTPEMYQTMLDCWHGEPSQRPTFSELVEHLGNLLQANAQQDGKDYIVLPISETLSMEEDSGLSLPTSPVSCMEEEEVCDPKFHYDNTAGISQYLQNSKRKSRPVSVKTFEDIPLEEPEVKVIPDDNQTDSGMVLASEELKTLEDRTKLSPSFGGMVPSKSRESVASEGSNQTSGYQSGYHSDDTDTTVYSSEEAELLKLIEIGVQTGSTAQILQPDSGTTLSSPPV
Outline: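 Ba/F3-KDR-transfected cells, 20000 per well in phenol red free RPMI-1640 with 10% FBS, exposed to compound 24 hours at 37° C, 5% CO2; Alamar Blue then added for 4 hours and fluorescence read (ex. 540 nm, em. 590 nm). Plus-IL3 counterscreen run identically with 10 ng/ml murine IL3.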

[2] = test system: Ba/F3-Flt3-transfected cells; test: Ba/F3-Flt3 (plus IL3) cellular proliferation assay, counterscreen with 10 ng/ml murine IL3; type: cell-based; settings: read-out: BAF3_FLT3 (PLUS IL3) pIC50 (converted)
Description: (§1) Ba/F3-Flt3 (Minus IL3 or Plus IL3) (Cellular Proliferation Assay)
(§2) In a 384 well plate, 100 nl of compound dilution in DMSO was sprayed before adding 50 μl cell culture medium (phenol red free RPMI-1640, 10% FBS, 2 mM L-Glutamine and 50 μg/ml Gentamycin) containing 20000 cells per well of Ba/F3-Flt3-transfected cells. Cells were put in an incubator at 37° C. and 5% CO2. After 24 hours, 10 μl of Alamar Blue solution (0.5 mM K3Fe(CN)6, 0.5 mM K4Fe(CN)6, 0.15 mM Resazurin and 100 mM Phosphate Buffer) was added to the wells, incubated for 4 hours at 37° C. and 5% CO2 before RFU's (Relative Fluorescence Units) (ex. 540 nm., em. 590 nm.) were measured in a fluororescence plate reader.
As a counterscreen the same experiment was performed in the presence of 10 ng/ml murine IL3.

[3] = biological target: T2, Ba/F3-Flt3-transfected cells (Homo sapiens, UniProt P36888, cells depend on it, form not given); test: Ba/F3-Flt3 (minus IL3) cellular proliferation assay, Alamar Blue; type: cell-based
T2 construct: BAF3-FLT3 (MIN IL3) pIC50; other: minus IL3
T2 sequence (P36888 1-993): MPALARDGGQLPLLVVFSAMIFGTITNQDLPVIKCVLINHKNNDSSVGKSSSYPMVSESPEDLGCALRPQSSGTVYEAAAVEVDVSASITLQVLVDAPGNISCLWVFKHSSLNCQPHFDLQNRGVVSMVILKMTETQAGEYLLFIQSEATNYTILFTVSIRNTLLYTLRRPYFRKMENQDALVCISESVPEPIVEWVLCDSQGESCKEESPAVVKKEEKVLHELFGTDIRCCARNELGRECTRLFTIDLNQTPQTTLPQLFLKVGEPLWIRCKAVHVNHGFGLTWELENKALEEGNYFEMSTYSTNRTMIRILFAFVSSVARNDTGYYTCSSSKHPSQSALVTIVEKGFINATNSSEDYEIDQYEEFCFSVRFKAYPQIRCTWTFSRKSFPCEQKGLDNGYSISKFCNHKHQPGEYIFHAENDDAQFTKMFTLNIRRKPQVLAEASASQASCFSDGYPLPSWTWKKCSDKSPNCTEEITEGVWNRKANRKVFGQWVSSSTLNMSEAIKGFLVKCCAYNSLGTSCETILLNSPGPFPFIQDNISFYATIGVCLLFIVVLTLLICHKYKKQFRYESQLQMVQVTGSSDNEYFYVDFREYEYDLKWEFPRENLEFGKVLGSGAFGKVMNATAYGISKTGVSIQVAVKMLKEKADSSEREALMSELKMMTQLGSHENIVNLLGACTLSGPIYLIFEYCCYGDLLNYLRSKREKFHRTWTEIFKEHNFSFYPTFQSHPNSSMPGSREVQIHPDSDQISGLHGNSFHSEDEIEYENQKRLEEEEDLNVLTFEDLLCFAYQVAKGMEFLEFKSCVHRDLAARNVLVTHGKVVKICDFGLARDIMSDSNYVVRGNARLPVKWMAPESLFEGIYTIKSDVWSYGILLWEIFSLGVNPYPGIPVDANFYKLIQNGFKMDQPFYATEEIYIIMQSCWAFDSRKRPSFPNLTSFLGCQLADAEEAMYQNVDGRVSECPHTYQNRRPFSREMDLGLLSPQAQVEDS
Description: as §1
as §2, with “reader. […]” for “reader.”

[4] = plus IL3 (10 ng/ml murine IL3, counterscreen)

Sequence of KDR (h) (P35968 20-1356): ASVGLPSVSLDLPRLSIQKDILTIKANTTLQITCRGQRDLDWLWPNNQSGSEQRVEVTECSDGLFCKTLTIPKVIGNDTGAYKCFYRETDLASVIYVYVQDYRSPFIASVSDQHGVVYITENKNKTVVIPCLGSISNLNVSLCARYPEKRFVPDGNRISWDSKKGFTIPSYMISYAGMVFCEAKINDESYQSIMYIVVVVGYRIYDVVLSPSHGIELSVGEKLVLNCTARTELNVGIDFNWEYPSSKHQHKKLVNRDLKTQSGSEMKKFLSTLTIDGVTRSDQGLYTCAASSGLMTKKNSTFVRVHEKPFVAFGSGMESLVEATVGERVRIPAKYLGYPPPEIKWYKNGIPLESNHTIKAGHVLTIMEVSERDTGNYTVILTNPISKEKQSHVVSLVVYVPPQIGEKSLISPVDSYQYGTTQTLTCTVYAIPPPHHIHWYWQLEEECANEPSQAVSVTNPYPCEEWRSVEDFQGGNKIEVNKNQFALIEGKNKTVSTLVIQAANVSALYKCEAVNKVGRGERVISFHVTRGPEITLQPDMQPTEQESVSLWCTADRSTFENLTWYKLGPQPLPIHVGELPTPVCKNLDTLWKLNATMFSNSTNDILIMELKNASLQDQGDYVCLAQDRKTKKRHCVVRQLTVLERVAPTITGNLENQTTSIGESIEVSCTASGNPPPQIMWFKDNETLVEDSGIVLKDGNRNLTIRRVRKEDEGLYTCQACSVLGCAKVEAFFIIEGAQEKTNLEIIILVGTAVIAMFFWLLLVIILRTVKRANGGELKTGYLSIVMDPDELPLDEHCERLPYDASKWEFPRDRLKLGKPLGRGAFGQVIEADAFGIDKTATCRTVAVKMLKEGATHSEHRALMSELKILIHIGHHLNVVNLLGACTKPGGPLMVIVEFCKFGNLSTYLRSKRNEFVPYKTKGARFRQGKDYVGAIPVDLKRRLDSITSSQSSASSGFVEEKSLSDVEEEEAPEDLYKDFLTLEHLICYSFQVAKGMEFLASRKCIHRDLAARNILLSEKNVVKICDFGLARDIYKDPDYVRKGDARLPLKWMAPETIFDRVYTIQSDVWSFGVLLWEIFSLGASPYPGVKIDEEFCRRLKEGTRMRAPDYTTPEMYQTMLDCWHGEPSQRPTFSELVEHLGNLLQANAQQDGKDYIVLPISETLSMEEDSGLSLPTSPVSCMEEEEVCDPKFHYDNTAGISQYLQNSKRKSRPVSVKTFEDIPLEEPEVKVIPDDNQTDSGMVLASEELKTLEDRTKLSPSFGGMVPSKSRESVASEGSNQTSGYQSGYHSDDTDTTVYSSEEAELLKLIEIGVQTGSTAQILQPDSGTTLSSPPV

| SMILES | melting point | IC50 (KDR (h)) | BAF3-KDR (MIN IL3) pIC50 [1] | IC50 [2, 4] | BAF3-FLT3 (MIN IL3) pIC50 [3] | IC50 [2] |
| --- | --- | --- | --- | --- | --- | --- |
| COc1cc(OC)c(F)c(N(CCCO)c2ccc3ncc(-c4cnn(C)c4)nc3n2)c1F (single isomer, unassigned) [Compound 16] | 208 °C | 100 nM | 6.2 | > 10000 nM | 5.18 |  |
| COc1cc(OC)c(Cl)c(/N=c2\ccc3ncc(-c4cnn(C)c4)nc3n2CC2CCC(=O)N2)c1Cl (single isomer, unassigned) [Compound 87] | 160 °C | 117 nM | 5.45 |  |  |  |
| COc1ccc(Cl)c(/N=c2\ccc3ncc(-c4cnn(C)c4)nc3n2CC2CCC(=O)N2)c1Cl (single isomer, unassigned) [Compound 89] | 183 °C | 339 nM | <5 |  |  |  |
| COc1cc(OC)c(F)c(N(CC2COC(=O)N2)c2ccc3ncc(-c4cnn(C)c4)nc3n2)c1 (single isomer, unassigned) [Compound 111] | 202 °C | 30.9 nM | 5.61 |  |  |  |
| CNCCN(c1ccc2ncc(-c3cnn(C)c3)nc2n1)c1c(F)c(OC)cc(OC)c1F [Compound 3] | 159 °C | 21.9 nM | 6.48 |  |  |  |
| COc1cc(OC)c(F)c(N(CCNC(C)C)c2ccc3ncc(-c4cnn(C)c4)nc3n2)c1F [Compound 5] | 183 °C | 79.4 nM | 6.35 | > 10000 nM |  |  |
| COCC(O)CN(c1cc(OC)cc(OC)c1)c1ccc2ncc(-c3cnn(C)c3)nc2n1 (stereo not shown) [Compound 7] | 65 °C | 200 nM | 5.1 | > 10000 nM | <5 |  |
| COc1cc(OC)c(F)c(N(Cc2ncccn2)c2ccc3ncc(-c4cnn(C)c4)nc3n2)c1 [Compound 9] | 227 °C | 50.1 nM | 5.95 |  | <5 | > 10000 nM |
| COc1cc(OC)c(F)c(N(Cc2cnccn2)c2ccc3ncc(-c4cnn(C)c4)nc3n2)c1F [Compound 10] |  | 31.6 nM | 6.2 | > 10000 nM | 5.12 |  |
| COc1cc(OC)c(F)c(N(CCO)c2ccc3ncc(-c4cnn(C)c4)nc3n2)c1F [Compound 20] |  | 316 nM | 6.53 | > 10000 nM | 5.23 |  |
| Cn1cc(-c2cnc3ccc(N(Cc4ncc[nH]4)c4cc(F)cc(F)c4)nc3n2)cn1 [Compound 27] |  | 501 nM | <5 | > 10000 nM | <5 |  |
| COc1cc(OC)c(F)c(N(Cc2cn(S(=O)(=O)N(C)C)cn2)c2ccc3ncc(-c4cnn(C)c4)nc3n2)c1 [Compound 36] |  | 27.5 nM | 5.67 | > 10000 nM | <5 |  |
| COc1cc(/N=c2\ccc3ncc(-c4cnn(C)c4)nc3n2CCNC(C)C)c(F)c(OC)c1 [Compound 37] |  | 45.7 nM | 6.11 | > 10000 nM | <5 |  |
| CNCCn1/c(=N/c2cc(OC)cc(OC)c2F)ccc2ncc(-c3cnn(C)c3)nc21 [Compound 38] |  | 74.1 nM | 5.13 | > 10000 nM | <5 |  |
